Measured values: patent US20220105081A1 (priority 2020, published 2022)
pIC50: −log10 of the molar value. “Also recorded” adds a separate entry of the source.

Key:
ORL1 receptors = ORL1 receptors (Homo sapiens, UniProt P41146); assay: Receptor activity profile (stated)
[1] = molecular target: T1, CHRM5 (Cholinergic Muscarinic Receptor 5) (Homo sapiens, UniProt P08912); assay: DiscoverX GPCR Max Panel screen; assay type: cell-based; settings: VDM-001 at 30 μM; Assay Mode Antagonist
T1 sequence (P08912 1-532): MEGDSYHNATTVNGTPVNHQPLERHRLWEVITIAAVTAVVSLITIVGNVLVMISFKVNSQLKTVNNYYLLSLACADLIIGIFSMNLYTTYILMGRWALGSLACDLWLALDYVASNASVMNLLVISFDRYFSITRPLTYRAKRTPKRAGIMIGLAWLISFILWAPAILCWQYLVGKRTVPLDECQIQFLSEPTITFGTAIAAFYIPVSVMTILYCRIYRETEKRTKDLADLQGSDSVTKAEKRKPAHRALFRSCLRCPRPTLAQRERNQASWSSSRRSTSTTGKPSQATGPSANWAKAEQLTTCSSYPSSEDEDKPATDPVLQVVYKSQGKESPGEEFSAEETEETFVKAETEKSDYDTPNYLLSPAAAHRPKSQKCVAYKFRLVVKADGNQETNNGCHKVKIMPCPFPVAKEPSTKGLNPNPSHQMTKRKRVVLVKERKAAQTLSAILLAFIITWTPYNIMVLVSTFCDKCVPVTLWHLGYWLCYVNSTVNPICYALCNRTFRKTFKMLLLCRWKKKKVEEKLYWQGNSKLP
Method: (§1) In Example 2, DiscoverX platform screening (GPCR Max Panel) of VDM-001(composition of formula I)) at a concentration of 30 μM (the IC50 for VDM-001 from the GTPgS studies) was conducted to confirm the data from the GTPgS study and to determine broad selectivity of over 336 protein targets. MOR antagonism was confirmed (87% activity) along with other targets with >50%. Overall 13 proteins were engaged by VDM-001 with greater than 50% activity.

[2] = molecular target: T2, ADRA2B (Alpha 2B adrenergic receptor) (Homo sapiens, UniProt P18089); assay: DiscoverX GPCR Max Panel screen; assay type: cell-based; settings: VDM-001 at 30 μM; Assay Mode Antagonist
T2 sequence (P18089 1-450): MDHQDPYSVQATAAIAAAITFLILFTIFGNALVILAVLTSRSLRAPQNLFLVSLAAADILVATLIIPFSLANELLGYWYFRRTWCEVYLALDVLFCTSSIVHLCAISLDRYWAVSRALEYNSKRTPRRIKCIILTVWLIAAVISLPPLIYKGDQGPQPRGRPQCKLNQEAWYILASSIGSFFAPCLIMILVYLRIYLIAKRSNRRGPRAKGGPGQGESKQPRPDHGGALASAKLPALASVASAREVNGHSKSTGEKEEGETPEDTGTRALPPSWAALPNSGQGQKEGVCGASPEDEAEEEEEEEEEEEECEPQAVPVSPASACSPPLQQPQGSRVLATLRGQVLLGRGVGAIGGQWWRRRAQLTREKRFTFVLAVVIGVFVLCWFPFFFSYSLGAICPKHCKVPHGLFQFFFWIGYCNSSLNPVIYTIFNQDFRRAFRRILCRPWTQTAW
Method: as §1

[3] = molecular target: T3, CHRM4 (Cholinergic Muscarinic Receptor 4) (Homo sapiens, UniProt P08173); assay: DiscoverX GPCR Max Panel screen; assay type: cell-based; settings: VDM-001 at 30 μM; Assay Mode Antagonist
T3 sequence (P08173 1-479): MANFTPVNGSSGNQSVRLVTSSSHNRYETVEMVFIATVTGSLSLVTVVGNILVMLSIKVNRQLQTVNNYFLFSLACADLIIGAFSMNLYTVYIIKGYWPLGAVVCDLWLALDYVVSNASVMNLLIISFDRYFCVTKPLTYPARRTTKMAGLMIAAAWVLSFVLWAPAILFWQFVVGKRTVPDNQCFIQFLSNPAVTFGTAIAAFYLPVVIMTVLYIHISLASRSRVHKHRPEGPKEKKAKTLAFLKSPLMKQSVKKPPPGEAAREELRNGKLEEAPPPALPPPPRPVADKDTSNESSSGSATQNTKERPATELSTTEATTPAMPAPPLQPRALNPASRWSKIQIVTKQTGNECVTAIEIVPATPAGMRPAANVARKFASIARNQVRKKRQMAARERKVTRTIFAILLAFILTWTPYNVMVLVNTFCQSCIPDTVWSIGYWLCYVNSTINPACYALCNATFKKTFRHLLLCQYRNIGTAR
Method: as §1

[4] = molecular target: T4, CHRM1 (Cholinergic Muscarinic Receptor 1) (Homo sapiens, UniProt P11229); assay: DiscoverX GPCR Max Panel screen; assay type: cell-based; settings: VDM-001 at 30 μM; Assay Mode Antagonist
T4 sequence (P11229 1-460): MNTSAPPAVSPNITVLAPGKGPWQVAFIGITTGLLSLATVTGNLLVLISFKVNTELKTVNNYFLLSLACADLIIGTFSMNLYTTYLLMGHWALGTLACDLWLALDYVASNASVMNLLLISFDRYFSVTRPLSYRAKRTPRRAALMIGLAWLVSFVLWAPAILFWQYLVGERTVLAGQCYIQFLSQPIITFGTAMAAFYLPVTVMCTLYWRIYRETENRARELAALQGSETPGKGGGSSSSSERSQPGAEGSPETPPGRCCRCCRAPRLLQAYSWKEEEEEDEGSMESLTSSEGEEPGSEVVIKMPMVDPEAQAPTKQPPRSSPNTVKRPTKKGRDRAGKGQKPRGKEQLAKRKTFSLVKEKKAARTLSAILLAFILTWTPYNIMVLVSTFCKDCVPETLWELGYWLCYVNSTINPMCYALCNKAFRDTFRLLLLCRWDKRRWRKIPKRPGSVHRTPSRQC
Method: as §1

[5] = molecular target: OPRL1 (Nociceptin 1 receptor) (Homo sapiens, UniProt P41146); assay: DiscoverX GPCR Max Panel screen; assay type: cell-based; settings: VDM-001 at 30 μM; Assay Mode Antagonist
Method: as §1

[6] = molecular target: T5, DRD4 (Dopamine D4 receptor) (Homo sapiens, UniProt P21917); assay: DiscoverX GPCR Max Panel screen; assay type: cell-based; settings: VDM-001 at 30 μM; Assay Mode Antagonist
T5 sequence (P21917 1-419): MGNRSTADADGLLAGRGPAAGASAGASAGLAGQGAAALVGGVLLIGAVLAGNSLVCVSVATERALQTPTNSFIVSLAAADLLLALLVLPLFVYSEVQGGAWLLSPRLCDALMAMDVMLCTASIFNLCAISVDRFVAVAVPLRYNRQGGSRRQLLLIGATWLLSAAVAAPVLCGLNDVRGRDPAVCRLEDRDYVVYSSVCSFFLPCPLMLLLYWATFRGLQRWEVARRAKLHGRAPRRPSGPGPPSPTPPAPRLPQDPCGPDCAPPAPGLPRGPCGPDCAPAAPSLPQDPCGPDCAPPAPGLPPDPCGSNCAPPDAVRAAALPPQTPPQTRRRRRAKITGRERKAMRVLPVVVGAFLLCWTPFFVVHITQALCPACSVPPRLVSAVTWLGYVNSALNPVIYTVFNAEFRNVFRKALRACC
Method: as §1

[7] = molecular target: HTR1B (Serotonin 1B receptor) (Homo sapiens, UniProt P28222); assay: DiscoverX GPCR Max Panel screen; assay type: cell-based; settings: VDM-001 at 30 μM; Assay Mode Antagonist
Method: as §1

[8] = molecular target: OPRM1 (Mu Opiate receptor) (Homo sapiens, UniProt P35372); assay: DiscoverX GPCR Max Panel screen; assay type: cell-based; settings: VDM-001 at 30 μM; Assay Mode Antagonist
Method: as §1

[9] = molecular target: T6, ADRA1B (Alpha 1B adrenergic receptor) (Homo sapiens, UniProt P35368); assay: DiscoverX GPCR Max Panel screen; assay type: cell-based; settings: VDM-001 at 30 μM; Assay Mode Antagonist
T6 sequence (P35368 1-520): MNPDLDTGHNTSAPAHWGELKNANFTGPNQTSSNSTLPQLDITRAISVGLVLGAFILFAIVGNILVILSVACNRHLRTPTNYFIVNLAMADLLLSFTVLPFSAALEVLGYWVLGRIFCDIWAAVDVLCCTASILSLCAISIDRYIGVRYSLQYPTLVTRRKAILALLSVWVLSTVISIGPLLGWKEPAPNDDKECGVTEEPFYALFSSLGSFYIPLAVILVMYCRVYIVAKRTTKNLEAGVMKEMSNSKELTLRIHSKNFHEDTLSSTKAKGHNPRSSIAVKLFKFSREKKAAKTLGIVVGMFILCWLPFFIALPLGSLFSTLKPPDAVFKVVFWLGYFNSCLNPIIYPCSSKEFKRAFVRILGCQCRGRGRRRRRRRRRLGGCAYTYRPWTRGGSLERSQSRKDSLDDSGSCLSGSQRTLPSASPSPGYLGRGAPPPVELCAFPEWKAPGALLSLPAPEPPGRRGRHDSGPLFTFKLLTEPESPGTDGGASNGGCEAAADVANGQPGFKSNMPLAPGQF
Method: as §1

[10] = molecular target: HRH1 (Histamine H1 receptor) (Homo sapiens, UniProt P35367); assay: DiscoverX GPCR Max Panel screen; assay type: cell-based; settings: VDM-001 at 30 μM; Assay Mode Antagonist
Method: as §1

[11] = molecular target: CHRM3 (Cholinergic Muscarinic Receptor 3) (Homo sapiens, UniProt P20309); assay: DiscoverX GPCR Max Panel screen; assay type: cell-based; settings: VDM-001 at 30 μM; Assay Mode Antagonist
Method: as §1

[12] = molecular target: T7, HTR1A (Serotonin 1A receptor) (Homo sapiens, UniProt P08908); assay: DiscoverX GPCR Max Panel screen; assay type: cell-based; settings: VDM-001 at 30 μM; Assay Mode Antagonist
T7 sequence (P08908 1-422): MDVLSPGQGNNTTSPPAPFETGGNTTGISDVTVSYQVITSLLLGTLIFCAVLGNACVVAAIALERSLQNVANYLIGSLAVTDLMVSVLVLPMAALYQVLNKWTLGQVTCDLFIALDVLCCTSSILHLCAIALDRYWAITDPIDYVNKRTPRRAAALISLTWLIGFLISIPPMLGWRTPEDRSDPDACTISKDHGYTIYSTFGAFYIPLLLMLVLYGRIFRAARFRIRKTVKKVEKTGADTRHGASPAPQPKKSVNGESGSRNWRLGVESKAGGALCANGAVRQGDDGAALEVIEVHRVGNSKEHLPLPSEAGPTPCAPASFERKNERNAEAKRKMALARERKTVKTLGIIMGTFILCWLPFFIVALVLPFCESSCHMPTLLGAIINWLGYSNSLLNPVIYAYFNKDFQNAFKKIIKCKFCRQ
Method: as §1

[13] = molecular target: T8, ADRA2C (Adrenergic receptor alpha 2C) (Homo sapiens, UniProt P18825); assay: DiscoverX GPCR Max Panel screen; assay type: cell-based; settings: VDM-001 at 30 μM; Assay Mode Antagonist
T8 sequence (P18825 1-462): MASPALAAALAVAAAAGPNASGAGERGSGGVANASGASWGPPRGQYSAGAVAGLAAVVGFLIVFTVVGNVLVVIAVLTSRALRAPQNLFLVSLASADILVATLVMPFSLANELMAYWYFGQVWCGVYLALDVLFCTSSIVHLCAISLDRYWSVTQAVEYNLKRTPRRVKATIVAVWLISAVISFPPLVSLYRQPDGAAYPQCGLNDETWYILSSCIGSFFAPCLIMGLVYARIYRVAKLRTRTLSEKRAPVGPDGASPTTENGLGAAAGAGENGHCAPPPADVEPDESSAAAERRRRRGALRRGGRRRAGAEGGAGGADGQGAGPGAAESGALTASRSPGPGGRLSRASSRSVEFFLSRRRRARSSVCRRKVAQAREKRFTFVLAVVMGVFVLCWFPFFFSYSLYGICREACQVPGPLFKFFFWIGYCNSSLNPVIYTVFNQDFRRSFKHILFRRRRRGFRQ
Method: as §1

kappa receptors = kappa receptors (Homo sapiens, UniProt P41145); assay: Receptor activity profile (stated)
morphine-dependent rats = assay: Opiate withdrawal signs in morphine-dependent rats
Sigma sites = assay: Receptor activity profile (stated)
mu opioid receptors = mu opioid receptors (Homo sapiens, UniProt P35372); assay: Receptor activity profile (stated)
MOR = MOR (Homo sapiens, UniProt P35372); assay: GTPgS studies; assay type: biochemical; settings: read-out: IC50 from the GTPgS studies
Chain of MOR (P35372 whole entry): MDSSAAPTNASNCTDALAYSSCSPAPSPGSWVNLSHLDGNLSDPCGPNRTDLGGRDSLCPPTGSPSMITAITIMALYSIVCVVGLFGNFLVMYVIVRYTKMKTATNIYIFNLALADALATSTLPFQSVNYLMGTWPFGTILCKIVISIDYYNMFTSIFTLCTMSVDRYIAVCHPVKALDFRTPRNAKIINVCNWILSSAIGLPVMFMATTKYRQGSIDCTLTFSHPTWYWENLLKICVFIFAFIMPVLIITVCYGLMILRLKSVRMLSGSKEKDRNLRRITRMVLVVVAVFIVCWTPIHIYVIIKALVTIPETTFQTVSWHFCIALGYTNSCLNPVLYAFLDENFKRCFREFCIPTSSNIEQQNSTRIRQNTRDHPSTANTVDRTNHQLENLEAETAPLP

Chain of OPRM1 (Mu Opiate receptor) (P35372 whole entry): as above
Chain of CHRM3 (Cholinergic Muscarinic Receptor 3) (P20309 whole entry): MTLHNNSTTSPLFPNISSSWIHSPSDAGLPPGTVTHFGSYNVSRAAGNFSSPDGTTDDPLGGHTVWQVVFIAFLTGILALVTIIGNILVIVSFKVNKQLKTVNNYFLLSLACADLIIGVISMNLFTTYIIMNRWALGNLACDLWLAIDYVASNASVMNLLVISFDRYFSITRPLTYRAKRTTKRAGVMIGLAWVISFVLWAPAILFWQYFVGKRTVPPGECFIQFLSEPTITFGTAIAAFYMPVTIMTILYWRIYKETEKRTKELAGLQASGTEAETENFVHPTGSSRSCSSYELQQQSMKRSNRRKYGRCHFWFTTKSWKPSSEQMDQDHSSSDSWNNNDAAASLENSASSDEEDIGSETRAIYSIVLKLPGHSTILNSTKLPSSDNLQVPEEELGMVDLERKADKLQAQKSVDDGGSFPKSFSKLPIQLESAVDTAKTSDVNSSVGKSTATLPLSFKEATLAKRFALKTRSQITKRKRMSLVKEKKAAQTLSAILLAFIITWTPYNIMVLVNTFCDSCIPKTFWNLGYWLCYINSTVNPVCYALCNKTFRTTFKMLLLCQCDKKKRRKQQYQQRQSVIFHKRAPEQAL
Chain of ORL1 receptors (P41146 whole entry): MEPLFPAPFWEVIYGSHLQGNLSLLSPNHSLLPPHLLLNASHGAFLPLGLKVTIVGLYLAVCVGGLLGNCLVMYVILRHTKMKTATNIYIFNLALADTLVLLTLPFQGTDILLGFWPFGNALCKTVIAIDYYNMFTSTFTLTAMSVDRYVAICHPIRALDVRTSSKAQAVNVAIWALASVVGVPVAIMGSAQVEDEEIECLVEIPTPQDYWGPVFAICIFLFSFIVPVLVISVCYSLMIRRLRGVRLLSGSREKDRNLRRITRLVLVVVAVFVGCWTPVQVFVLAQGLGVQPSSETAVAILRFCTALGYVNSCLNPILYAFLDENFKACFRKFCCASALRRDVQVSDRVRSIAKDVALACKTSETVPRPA
Chain of OPRL1 (Nociceptin 1 receptor) (P41146 whole entry): as above
Chain of HRH1 (Histamine H1 receptor) (P35367 whole entry): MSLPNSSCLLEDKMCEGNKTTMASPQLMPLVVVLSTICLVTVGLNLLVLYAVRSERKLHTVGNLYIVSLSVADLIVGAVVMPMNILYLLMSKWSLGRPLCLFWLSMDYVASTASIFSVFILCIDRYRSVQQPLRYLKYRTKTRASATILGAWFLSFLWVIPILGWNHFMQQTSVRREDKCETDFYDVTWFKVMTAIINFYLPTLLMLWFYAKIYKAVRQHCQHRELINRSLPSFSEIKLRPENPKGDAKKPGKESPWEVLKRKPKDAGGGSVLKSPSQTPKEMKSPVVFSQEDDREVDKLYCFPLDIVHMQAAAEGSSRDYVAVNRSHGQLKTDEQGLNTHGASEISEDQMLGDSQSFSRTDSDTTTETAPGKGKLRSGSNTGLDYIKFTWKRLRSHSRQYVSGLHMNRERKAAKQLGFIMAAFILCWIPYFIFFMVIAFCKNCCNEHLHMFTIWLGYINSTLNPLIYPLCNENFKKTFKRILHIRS
Chain of kappa receptors (P41145 whole entry): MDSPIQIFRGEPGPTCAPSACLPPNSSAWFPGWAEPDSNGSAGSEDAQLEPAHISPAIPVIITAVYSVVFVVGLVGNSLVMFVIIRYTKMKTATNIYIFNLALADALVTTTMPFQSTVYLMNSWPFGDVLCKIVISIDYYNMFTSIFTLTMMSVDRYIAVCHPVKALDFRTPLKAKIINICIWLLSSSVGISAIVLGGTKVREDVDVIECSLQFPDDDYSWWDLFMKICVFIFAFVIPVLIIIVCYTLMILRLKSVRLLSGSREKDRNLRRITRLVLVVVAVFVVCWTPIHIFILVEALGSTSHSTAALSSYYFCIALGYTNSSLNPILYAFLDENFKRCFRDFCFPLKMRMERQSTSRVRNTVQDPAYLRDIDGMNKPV
Chain of mu opioid receptors (P35372 whole entry): as the sequence (P35372 whole entry) above
Chain of HTR1B (Serotonin 1B receptor) (P28222 whole entry): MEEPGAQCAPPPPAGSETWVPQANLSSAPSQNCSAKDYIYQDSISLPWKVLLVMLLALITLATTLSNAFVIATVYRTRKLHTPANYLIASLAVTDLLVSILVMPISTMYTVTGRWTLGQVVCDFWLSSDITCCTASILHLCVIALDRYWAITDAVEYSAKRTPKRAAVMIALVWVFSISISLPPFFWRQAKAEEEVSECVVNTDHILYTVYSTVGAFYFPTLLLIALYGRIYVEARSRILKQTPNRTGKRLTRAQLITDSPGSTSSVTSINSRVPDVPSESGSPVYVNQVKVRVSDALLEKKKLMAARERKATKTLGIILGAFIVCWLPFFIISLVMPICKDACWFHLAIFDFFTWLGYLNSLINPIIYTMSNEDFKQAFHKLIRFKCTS

Question: Which “mode of action at ORL1 receptors” value (ORL1 receptors) does the source give for `CCC(=O)NC1CC(C)N(CCc2ccccc2)CC1C` (stereo not drawn) [VDM-001, N-[2,5-dimethyl-1-(2-phenylethyl)piperidin-4-yl]propanamide] here?
Answer: antagonist

Question: And the Activity [1]?
Answer: 74%

Question: And the Activity [2]?
Answer: 98%

Question: And the Activity [3]?
Answer: 72%

Question: What about the Activity [4] of the same molecule?
Answer: 72%

Question: And the Activity [5]?
Answer: 54%

Question: What about the Activity [6] of the same molecule?
Answer: 75%

Question: What about the Activity [7] of the same molecule?
Answer: 60%

Question: And the Activity [8]?
Answer: 87%

Question: What about the Activity [9] of the same molecule?
Answer: 84%

Question: And the Activity [10]?
Answer: 99%

Question: What about the Activity [11] of the same molecule?
Answer: 85%

Question: What about the Activity [12] of the same molecule?
Answer: 73%

Question: And the Activity [13]?
Answer: 104%

Question: What about the “mode of action at kappa receptors” value (kappa receptors) of the same molecule?
Answer: antagonist

Question: And the incidence of diarrhea (morphine-dependent rats; 20 mg/kg, equal to the control)?
Answer: around 1%

Question: And the incidence of diarrhea (morphine-dependent rats; 40 mg/kg)?
Answer: less than 20%

Question: And the opiate withdrawal signs (morphine-dependent rats; 20 or 40 mg/kg)?
Answer: minimal, if any, opiate withdrawal signs; also recorded: did not precipitate morphine withdrawal symptoms; also recorded: did not show significant withdrawal signs

Question: What about the “mode of action at Sigma sites” value (Sigma sites) of the same molecule?
Answer: either agonist or antagonist activity

Question: What about the “mode of action at mu opioid receptors” value (mu opioid receptors) of the same molecule?
Answer: partial agonist

Question: What about the pIC50 (MOR) of the same molecule?
Answer: 4.52

Question: For `C=CCN1CC[C@]23c4c5ccc(O)c4O[C@H]2C(=O)CC[C@@]3(O)[C@H]1C5` [naloxone, 17-allyl-4,5a-epoxy-3,14-dihydroxymorphinan-6-one, reference compound], which incidence of diarrhea (morphine-dependent rats; 1 mg/kg) is on record?
Answer: over 80%

Question: What about the opiate withdrawal signs (morphine-dependent rats; 1 mg/kg) of the same molecule?
Answer: large opiate withdrawal signs

Question: And the opiate withdrawal signs (morphine-dependent rats; 1 mg/kg, listed as Naloxone)?
Answer: precipitated a large number of withdrawal signs
